Reference: patent publication US8558011B2, “Cold menthol receptor-1 antagonists” (Janssen Pharmaceutica, NV, priority 2010, dated 2013)
Several values for one entry are separate records, joined by “and”; a condition that tells them apart may be missing. Equal entries are not always repeated.

How the values were obtained:
canine TRPM8 = molecular target: T1, canine TRPM8 (Canis lupus familiaris, UniProt Q1A7N1); assay: In Vitro Canine TRPM8 Functional Assay (Ca2+-sensitive fluorescent dye, icilin activation, FLIPR/FDSS); type: cell-based; conditions: HEK293 cells stably expressing canine TRPM8, icilin activation; for % I (1 μM): compound at 1 μM; for IC50: eight-point dose-response; for % I (0.5 μM): compound at 0.5 μM
T1 construct: expressed in transfected cells
T1 sequence (Q1A7N1 1-1104): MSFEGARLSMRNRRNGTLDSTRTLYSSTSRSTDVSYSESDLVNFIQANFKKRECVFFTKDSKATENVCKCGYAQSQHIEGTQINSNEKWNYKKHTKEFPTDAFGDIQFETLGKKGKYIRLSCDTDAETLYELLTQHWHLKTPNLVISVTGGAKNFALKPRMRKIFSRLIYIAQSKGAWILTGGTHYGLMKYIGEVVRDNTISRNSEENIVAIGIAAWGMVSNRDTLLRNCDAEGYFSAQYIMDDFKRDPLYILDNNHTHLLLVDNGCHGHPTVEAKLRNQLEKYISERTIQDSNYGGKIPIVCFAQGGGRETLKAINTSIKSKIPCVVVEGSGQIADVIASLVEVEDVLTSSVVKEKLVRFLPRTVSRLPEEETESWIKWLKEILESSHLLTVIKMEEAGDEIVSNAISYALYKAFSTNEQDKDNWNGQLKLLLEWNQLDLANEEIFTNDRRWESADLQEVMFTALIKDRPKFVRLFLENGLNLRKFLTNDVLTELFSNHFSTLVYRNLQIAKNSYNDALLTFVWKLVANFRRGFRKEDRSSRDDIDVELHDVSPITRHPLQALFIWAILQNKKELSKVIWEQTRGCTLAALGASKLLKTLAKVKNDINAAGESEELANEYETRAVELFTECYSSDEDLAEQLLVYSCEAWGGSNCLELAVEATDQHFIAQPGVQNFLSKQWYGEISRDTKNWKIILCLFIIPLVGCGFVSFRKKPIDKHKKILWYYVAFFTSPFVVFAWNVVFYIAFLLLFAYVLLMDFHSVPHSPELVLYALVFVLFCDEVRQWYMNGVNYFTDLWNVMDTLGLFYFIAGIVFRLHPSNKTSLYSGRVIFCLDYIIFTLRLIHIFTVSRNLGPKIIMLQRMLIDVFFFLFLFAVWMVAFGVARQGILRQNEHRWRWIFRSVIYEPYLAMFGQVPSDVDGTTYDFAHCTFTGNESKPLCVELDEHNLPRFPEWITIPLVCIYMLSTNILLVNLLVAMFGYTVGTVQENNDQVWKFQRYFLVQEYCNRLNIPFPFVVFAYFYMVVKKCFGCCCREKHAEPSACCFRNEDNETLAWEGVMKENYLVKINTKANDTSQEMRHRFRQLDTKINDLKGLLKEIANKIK
Protocol: The functional activity of compounds of Formula (I) was determined by measuring changes in intracellular calcium concentration using a Ca^2+-sensitive fluorescent dye. The changes in fluorescent signal were monitored by a fluorescence plate reader, either a FLIPR™ (Molecular Devices) or FDSS (Hamamatsu).
HEK293 cells stably expressing canine TRPM8 were routinely grown as monolayers in Dulbecco's minimum essential medium supplemented with 10% FBS, 1 mM L-glutamine, 100 units/mL penicillin, 100 ug/mL streptomycin and 400 μg/mL G418. Cells were maintained in 5% CO2 at 37° C. At 24 hrs prior to assay, cells were seeded in clear-base poly-D-lysine coated 384-well plates (BD Biosciences, NJ, USA) at a density of 5,000 cells per well in culture medium and grown overnight in 5% CO2 at 37° C. On assay day, growth media was removed and cells were loaded with Calcium 3 Dye (Molecular Devices) for 35 min at 37° C., under 5% CO2 and then for 25 min at room temperature and atmosphere. Subsequently, cells were tested for agonist-induced increases in intracellular Ca^2+ levels using FLIPR™ or FDSS. Cells were challenged with a compound of Formula (I) (at varying concentrations) and intracellular Ca^2+ was measured for 5 min prior to the addition of icilin to all wells to achieve a final concentration which produces approximately an 80% maximal response.
Basal FI was subtracted prior to normalizing data to percent of maximal response. Curves were generated using the average of quadruplicate wells for each data point, were analyzed using nonlinear regression of either sigmoidal dose response or sigmoidal dose response (variable slope). Finally, the EC50 and IC50 values were calculated with the best-fit dose curve determined by GraphPad Prism.

[1] = system: CFA-induced Paw Radiant Heat Hypersensitivity; assay: CFA-induced paw radiant heat hypersensitivity; type: in vivo, rat
Protocol: Intraplantar injection of Complete Freund's Adjuvant (CFA) in rodents results in a long-lasting inflammatory reaction, characterized by a pronounced hypersensitivity to both thermal and mechanical stimuli. This hypersensitivity peaks between 24-72 hours following injection and can last for several weeks. […] This paradigm also may be conducted with a multiple dosing or a prophylactic dosing regime designed to alter the course of hyperalgesia development. This test predicts the analgesic, anti-allodynic and antihyperalgesic effect of numerous effective clinical agents, including NSAIDS such as acetaminophen, aspirin and ibuprofen, and opioids such as morphine.
Each rat was placed in a test chamber on a warm glass surface and allowed to acclimate for approximately 10 minutes. A radiant thermal stimulus (beam of light) was then focused through the glass onto the plantar surface of each hind paw in turn. The thermal stimulus was automatically shut off by a photoelectric relay when the paw was moved or when the cut-off time was reached (20 seconds for radiant heat at ˜5 Amps). An initial (baseline) response latency to the thermal stimulus was recorded for each animal prior to the injection of CFA. Twenty-four hours following intraplantar CFA injection, the response latency of the animal to the thermal stimulus was then re-evaluated and compared to the animal's baseline response time. […] Immediately following the post-CFA latency assessment, test compound or vehicle (usually Solutol, hydroxypropyl methylcellulose, hydroxypropyl beta-cyclodextrin or PEG-400) was administered i.p. or p.o. to rats. […] The percent reversal (% R) of hypersenstivitiy was calculated according to the following formula: % Reversal=(Treatment Response−CFA Response)/(Baseline Response−CFA Response)×100.

Structure (SMILES) | % I (1 μM) (canine TRPM8) | IC50 (canine TRPM8) | % I (0.5 μM) (canine TRPM8) | other results
CCOP(=O)(OCC)C(Cc1ccc(F)c(F)c1)c1sc2ccccc2c1Br (stereo not drawn) [Cpd 127, [1-(3-Bromo-benzo[b]thiophen-2-yl)-2-(3,4-difluoro-phenyl)-ethyl]-phosphonic acid dethyl ester] | 100% | – | – | % Reversal ([1]; 30 mg/kg p.o., time 1 (h)): 88%
CCOP(=O)(OCC)C(Cc1ccc(SC)cc1)c1sc2ccccc2c1Cl (stereo not drawn) [Cpd 299] | – | 0.141 µM | 101% | % Reversal ([1]; 30 mg/kg p.o., time 1 (h)): 23%
CCOP(=O)(OCC)C(Cc1cccc(Cl)c1)c1sc2ccccc2c1Br (stereo not drawn) [Cpd 137, [1-(3-Bromo-benzo[b]thiophene-2-yl)-2-(3-chloro-phenyl)-ethyl]-phosphonic acid diethyl ester] | – | – | 102% | % Reversal ([1]; 30 mg/kg p.o., time 1 (h)): 34%
CCOP(=O)(OCC)C(Cc1ccc(F)c(Cl)c1)c1sc2ccccc2c1Br (stereo not drawn) [Cpd 244] | – | 0.028 µM | 103% | % Reversal ([1]; 30 mg/kg p.o., time 2 (h)): 45%
CCOP(=O)(OCC)C(Cc1ccc(F)cc1)c1sc2ccccc2c1Br (stereo not drawn) [Cpd 238, [1-(3-Bromo-benzo[b]thiophen-2-yl)-2-(4-fluoro-phenyl)-ethyl]-phosphonic acid diethyl ester] | – | – | 104% | % Reversal ([1]; 30 mg/kg p.o., time 2 (h)): 56%
CC(C)OP(=O)(OC(C)C)C(Cc1ccc(F)c(F)c1)c1sc2ccccc2c1Cl (stereo not drawn) [Cpd 12, [1-(3-Chloro-benzo[b]thiophen-2-yl)-2-(3,4-difluoro-phenyl)-ethyl]-phosphonic acid diisopropyl ester] | 100% | – | – | % Reversal ([1]; 30 mg/kg i.p., time 1 h): 105%
CCOP(=O)(OCC)C(Cc1ccc(F)cc1Cl)c1sc2ccccc2c1C (racemic) [Cpd 27] | 99% | 0.11 µM | – | –
CC(C)OP(=O)(OC(C)C)C(Cc1ccc(F)c(F)c1)c1sc2ccccc2c1C(C)C (racemic) [Cpd 19] | 100% | 0.068 µM | – | –
CCOP(=O)(OCC)C(Cc1ccc(F)c(C(F)(F)F)c1)c1sc2ccccc2c1Cl (stereo not drawn) [Cpd 298] | – | 0.085 µM | 99% | % Reversal ([1]; 30 mg/kg p.o., time 1 (h)): 20%
CC(C)OP(=O)(OC(C)C)C(Cc1cc(C(F)(F)F)ccc1F)c1sc2ccccc2c1Cl (stereo not drawn) [Cpd 172] | – | 0.105 µM | 104% | –
CC(C)OP(=O)(OC(C)C)C(Cc1cc(Cl)ccc1F)c1sc2ccccc2c1Cl (stereo not drawn) [Cpd 303] | – | 0.049 µM | 102% | –
CCOP(=O)(OCC)C(Cc1ccccc1Cl)c1sc2ccccc2c1Br (stereo not drawn) [Cpd 147] | – | 0.125 µM | 103% | –
CC(C)OP(=O)(OC(C)C)C(Cc1ccc(F)cc1)c1sc2ccccc2c1Cl (stereo not drawn) [Cpd 306] | – | – | 101% and 102% | –
CCOP(=O)(OCC)C(Cc1cccc(N)c1)c1sc2ccccc2c1Br (stereo not drawn) [Cpd 318, [2-(3-Amino-phenyl)-1-(3-bromo-benzo[b]thiophen-2-yl)-ethyl]-phosphonic acid diethyl ester] | – | – | 100% | –
CC(C)OP(=O)(OC(C)C)C(Cc1cccc(C(F)(F)F)c1F)c1sc2ccccc2c1Cl (stereo not drawn) [Cpd 168] | – | 0.076 µM | 104% | –
CCOP(=O)(OCC)C(Cc1cccc(Cl)c1F)c1sc2ccccc2c1C (racemic) [Cpd 23] | 100% | 0.096 µM | – | –
CCOP(=O)(OCC)C(Cc1cc(F)cc(F)c1Cl)c1sc2ccccc2c1C (racemic) [Cpd 28] | 100% | 0.11 µM | – | –
CCOP(=O)(OCC)C(Cc1cccc(C(F)(F)F)c1F)c1sc2ccccc2c1Cl (stereo not drawn) [Cpd 281] | – | 0.131 µM | 102% | –
CCOP(=O)(OCC)C(Cc1ccc(F)c(F)c1)c1sc2cc(F)ccc2c1C (stereo not drawn) [Cpd 16, [2-(3,4-Difluoro-phenyl)-1-(6-fluoro-3-methyl-benzo[b]-thiophene-2-yl)-ethyl]-phosphonic acid diethyl ester] | 100% | – | – | –
CCOP(=O)(OCC)C(Cc1ccc(C(F)(F)F)cc1)c1sc2ccccc2c1Cl (stereo not drawn) [Cpd 285] | – | 0.125 µM | 103% | –

Structure (SMILES) | % I (1 μM) (canine TRPM8) | IC50 (canine TRPM8) | % I (0.5 μM) (canine TRPM8) | other results
COc1ccc(CC(c2sc3ccccc3c2Br)P(=O)(OC(C)C)OC(C)C)c(F)c1 (stereo not drawn) [Cpd 163] | – | 0.02 µM | 103% | –
CC(C)OP(=O)(OC(C)C)C(Cc1cccc(C(F)(F)F)c1)c1sc2ccccc2c1Cl (stereo not drawn) [Cpd 170] | – | 0.073 µM | 103% | –
CCOP(=O)(OCC)C(Cc1cccc([N+](=O)[O-])c1)c1sc2ccccc2c1Br (stereo not drawn) [Cpd 315] | – | – | 103% | –
CC(C)OP(=O)(OC(C)C)[C@H](Cc1ccc(F)c(F)c1)c1sc2ccccc2c1Br [Cpd 235, (R)-[1-(3-Bromo-benzo[b]thiophen-2-yl)-2-(3,4-difluoro-phenyl)-ethyl]-phosphonic acid diisopropyl ester] | – | – | 56% | –
CCOP(=O)(OCC)C(Cc1ccc(Cl)c(Cl)c1)c1sc2ccccc2c1Br (stereo not drawn) [Cpd 24, [1-(3-Bromo-benzo[b]thiophen-2-yl)-2-(3,4-dichloro-phenyl)-ethyl]-phosphonic acid diethyl ester] | 100% | – | – | –
CCOP(=O)(OCC)C(Cc1ccc(OC)c(C(F)(F)F)c1)c1sc2ccccc2c1Cl (stereo not drawn) [Cpd 292] | – | 0.216 µM | 99% | –
CCOP(=O)(OCC)C(Cc1cc(C(F)(F)F)ccc1F)c1sc2ccccc2c1Cl (stereo not drawn) [Cpd 286] | – | 0.127 µM | 102% | –
CCOP(=O)(OCC)C(Cc1ccc(SC)cc1)c1sc2ccccc2c1Br (stereo not drawn) [Cpd 247] | – | 0.121 µM | 103% | –
CCC(C)P(=O)(C(C)CC)C(OCc1ccc(F)c(F)c1)c1sc2ccccc2c1Br (stereo not drawn) [Cpd 204] | 100% | 0.092 µM | – | –
CCOP(=O)(OCC)C(Cc1cccc(OC)c1F)c1sc2ccccc2c1Br (stereo not drawn) [Cpd 162] | – | 0.032 µM | 103% | –
CCOP(=O)(OCC)C(Cc1ccc(F)cc1)c1sc2ccccc2c1Cl (stereo not drawn) [Cpd 284] | – | 0.079 µM and 0.065 µM | 103% and 102% | –
CC(C)OP(=O)(OC(C)C)C(Cc1c(F)c(F)c(O)c(F)c1F)c1sc2ccccc2c1Br (stereo not drawn) [Cpd 229] | – | 0.156 µM | 95% | –
CCOP(=O)(OCC)C(Cc1ccc(Cl)c(C(F)(F)F)c1)c1sc2ccccc2c1Cl (stereo not drawn) [Cpd 287] | – | 0.124 µM | 103% | –
CCOP(=O)(OCC)C(Cc1ccc(F)c(F)c1)c1oc2cccc(F)c2c1Br (stereo not drawn) [Cpd 206] | 100% | 0.098 µM | – | –
CCOP(=O)(OCC)C(Cc1ccc(Cl)c(Cl)c1)c1cc2ccccc2s1 (stereo not drawn) [Cpd 78, [1-Benzo[b]thiophen-2-yl-2-(3,4-dichloro-phenyl)-ethyl]-phosphonic acid diethyl ester] | 95% | – | – | –
CCOP(=O)(OCC)C(Cc1ccc(F)c(F)c1)c1sc2cccc(Cl)c2c1C (stereo not drawn) [Cpd 65, [1-(4-Chloro-3-methyl-benzo[b]thiophen-2-yl)-2-(3,4-difluoro-phenyl)-ethyl]-phosphonic acid diethyl ester] | 100% | – | – | –
CC(=O)OCCOP(=O)(OCCOC(C)=O)C(Cc1ccc(F)c(F)c1)c1sc2ccccc2c1Br (stereo not drawn) [Cpd 213] | – | 0.202 µM | 100% | –
CC(C)OP(=O)(OC(C)C)C(Cc1cccc(OC(F)(F)F)c1)c1sc2ccccc2c1Cl (stereo not drawn) [Cpd 301] | – | 0.054 µM | 102% | –
CCOP(=O)(OCC)C(Cc1ccc(F)c(O)c1)c1sc2ccccc2c1Br (stereo not drawn) [Cpd 225, [1-(3-Bromo-benzo[b]thiophen-2-yl)-2-(4-fluoro-3-hydroxy-phenyl)-ethyl]-phosphonic acid diethyl ester] | – | – | 103% | –
